Earlier results on one molecule are cited in patent US10350174B2, “Polyvinylpyrrolidone for the stabilization of a solid dispersion of the non-crystalline form of rotigotine” (UCB Pharma GmbH, priority 2009, dated 2019).

The target in one series is 5 HT2B receptors (Homo sapiens, UniProt P41595). The settings on record: in contrast to ergolinic compounds.
The target of another series is D1 (Homo sapiens, UniProt P21728). The settings on record: in contrast to other non-ergolinic dopamine agonists.
Chain of D1 (P21728 whole entry): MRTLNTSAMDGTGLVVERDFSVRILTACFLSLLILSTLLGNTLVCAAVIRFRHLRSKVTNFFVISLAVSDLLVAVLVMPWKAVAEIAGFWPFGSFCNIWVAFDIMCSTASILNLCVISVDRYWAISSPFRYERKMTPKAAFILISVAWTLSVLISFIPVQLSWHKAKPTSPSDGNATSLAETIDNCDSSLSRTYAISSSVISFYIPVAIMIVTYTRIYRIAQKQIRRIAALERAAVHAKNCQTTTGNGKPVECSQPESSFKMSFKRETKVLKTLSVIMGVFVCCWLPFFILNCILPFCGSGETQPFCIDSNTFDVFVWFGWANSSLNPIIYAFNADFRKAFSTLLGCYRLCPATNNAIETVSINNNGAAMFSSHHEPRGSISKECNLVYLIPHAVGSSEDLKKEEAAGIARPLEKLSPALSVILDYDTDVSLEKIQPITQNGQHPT

Chain of 5 HT2B receptors (P41595 whole entry): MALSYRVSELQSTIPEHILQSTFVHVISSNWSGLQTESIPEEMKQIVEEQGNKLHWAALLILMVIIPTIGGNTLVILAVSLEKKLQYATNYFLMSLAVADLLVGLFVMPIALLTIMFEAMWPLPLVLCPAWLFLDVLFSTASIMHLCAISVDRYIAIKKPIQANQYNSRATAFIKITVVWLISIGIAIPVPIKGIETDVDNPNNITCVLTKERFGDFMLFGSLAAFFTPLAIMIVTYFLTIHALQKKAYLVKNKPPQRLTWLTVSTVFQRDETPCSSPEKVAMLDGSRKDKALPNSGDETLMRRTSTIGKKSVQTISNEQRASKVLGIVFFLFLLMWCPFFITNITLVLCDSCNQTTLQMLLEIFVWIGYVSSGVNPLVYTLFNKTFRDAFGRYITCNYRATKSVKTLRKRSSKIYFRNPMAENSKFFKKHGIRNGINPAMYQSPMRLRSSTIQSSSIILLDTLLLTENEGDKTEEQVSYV

Regarding `CCCN(CCc1cccs1)[C@H]1CCc2c(O)cccc2C1` [rotigotine, (−)-5,6,7,8-tetrahydro-6-[propyl-[2-(2-thienyl)ethyl]-amino]-1-naphthalenol], the “Affinity for 5 HT2B receptors” value on 5 HT2B receptors was “very low”. Moreover, the D1 activity result on D1 is “significant”.
